The target in this test is T1, β-kinase domain of the human insulin receptor (CKD) (Homo sapiens, UniProt P06213).
T1 construct: The complete β-kinase domain of the human insulin receptor (CKD); made in house
The experiment in a line: 32P-Cytoplasmic Kinase Domain (CKD) autophosphorylation assay. In kind it is biochemical. The conditions noted are these: 32P incorporated into CKD band, percentage of the vehicle (DMSO) level; 10 minutes at room temperature; compound concentration not given. Here is the method: The complete β-kinase domain of the human insulin receptor (CKD) was expressed in, and purified from, baculovirus. CKD (4.0 μg/mL), in a solution of 50 mM Tris.HCl, 2 mM MnCl2, 10 mM MgCl2 (50 μl final volume), was combined with […] ATP, and 5 μCi ^32P-ATP (3000 Ci/mmol.). A test compound, or the vehicle (DMSO), was added to a final DMSO concentration of 1%. The mixture was incubated for 10 minutes at room temperature. The reaction was terminated by the addition of 10 μl of 200 mM EDTA. A 30 μl volume was removed, mixed with 5 μl of 6×Laemmeli sodium dodecyl sulfate (SDS) treatment buffer, and heated to 94° C. for 5 minutes. A 20 μl aliquot was then run on an SDS-PAGE gel. The radioactivity incorporated into the CKD band is quantified by phosphorimaging of the gel, or scintillation counting of the excised bands.
The potency of a compound for increasing phosphorylation is expressed as a percentage of the vehicle level.

Data on 25 compounds can be found in US6653321B1, “Naphthylsulfonic acids and related compounds as glucose uptake agonists” (Telik, Inc., priority 1999, dated 2003).

T1 sequence (P06213 980-1382 limits assumed): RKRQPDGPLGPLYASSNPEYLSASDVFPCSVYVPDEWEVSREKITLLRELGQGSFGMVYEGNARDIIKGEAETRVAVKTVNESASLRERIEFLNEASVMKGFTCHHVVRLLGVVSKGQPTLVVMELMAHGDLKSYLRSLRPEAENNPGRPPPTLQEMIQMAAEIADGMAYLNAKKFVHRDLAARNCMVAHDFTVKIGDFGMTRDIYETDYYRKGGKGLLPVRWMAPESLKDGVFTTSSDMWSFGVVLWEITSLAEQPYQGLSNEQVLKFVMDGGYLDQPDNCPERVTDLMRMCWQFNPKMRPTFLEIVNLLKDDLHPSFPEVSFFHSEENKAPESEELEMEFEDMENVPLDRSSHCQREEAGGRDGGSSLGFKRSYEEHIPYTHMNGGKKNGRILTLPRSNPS

As to `O=C(Nc1cc(C(=O)Nc2cccc3cc(S(=O)(=O)O)ccc23)cc(C(=O)Nc2cccc3cc(S(=O)(=O)O)ccc23)c1)c1ccc(F)cc1` [Compound 12, 5-({3-[(4-fluorophenyl)carbonylamino]-5-[N-(6-sulfonaphthyl)carbamoyl]phenyl}carbonylamino)naphthalene-2-sulfonic acid], the “Activity (% Control)” value came to 88.6 % Control. In the case of `O=C(Nc1cc(C(=O)Nc2cccc3cc(S(=O)(=O)O)ccc23)cc(C(=O)Nc2cccc3cc(S(=O)(=O)O)ccc23)c1)c1ccc([N+](=O)[O-])cc1` [Compound 14, 5-({3-[(4-nitrophenyl)carbonylamino]-5-[N-(6-sulfonaphthyl)carbamoyl]phenyl}carbonylamino)naphthalene-2-sulfonic acid] it was 81.7 % Control. In the case of `O=C(Nc1cccc2cc(S(=O)(=O)O)ccc12)c1cc(NC(=O)c2c(Cl)ccc(Cl)c2C(=O)O)cc(C(=O)Nc2cccc3cc(S(=O)(=O)O)ccc23)c1` [Compound 20] it was 84.9 % Control; in that of `O=C(Nc1cc(C(=O)Nc2cccc3cc(S(=O)(=O)O)ccc23)cc(C(=O)Nc2cccc3cc(S(=O)(=O)O)ccc23)c1)c1ccc2ccccc2c1` [Compound 24, 5-({3-(2-naphthylcarbonylamino)-5-[N-(6-sulfonaphthyl)carbamoyl]phenyl}carbonylamino)naphthalene-2-sulfonic acid], 89.6 % Control. Take `O=C(Nc1cccc2cc(S(=O)(=O)O)ccc12)c1cc(NC(=O)c2cccc3ccccc23)cc(C(=O)Nc2cccc3cc(S(=O)(=O)O)ccc23)c1` [Compound 25, 5-({3-(1-naphthylcarbonylamino)-5-[N-(6-sulfonaphthyl)carbamoyl]phenyl}carbonylamino)naphthalene-2-sulfonic acid]: the “Activity (% Control)” value was determined as 83.7 % Control. In the case of `N[C@@H](CC(=O)O)C(=O)Nc1cc(C(=O)Nc2cccc3cc(S(=O)(=O)O)ccc23)cc(C(=O)Nc2cccc3cc(S(=O)(=O)O)ccc23)c1` [Compound 26, (3S)-3-amino-3-(N-{3,5-bis[N-(6-sulfonaphthyl)carbamoyl]phenyl}carbamoyl)propanoic acid] it was 91.4 % Control; in that of `O=C(O)CC(C(=O)Nc1cc(C(=O)Nc2cccc3cc(S(=O)(=O)O)ccc23)cc(C(=O)Nc2cccc3cc(S(=O)(=O)O)ccc23)c1)c1ccccc1` (stereo not shown) [Compound 27, 3-(N-{3,5-bis[N-(6-sulfonaphthyl)carbamoyl]phenyl}carbamoyl)-3-phenylpropanoic acid], 161.2 % Control; in that of `O=C(CC(C(=O)O)c1ccccc1)Nc1cc(C(=O)Nc2cccc3cc(S(=O)(=O)O)ccc23)cc(C(=O)Nc2cccc3cc(S(=O)(=O)O)ccc23)c1` (stereo not shown) [Compound 28, 3-(N-{3,5-bis[N-(6-sulfonaphthyl)carbamoyl]phenyl}carbamoyl)-2-phenylpropanoic acid], 84.6 % Control. Consider `O=C(Nc1cccc2cc(S(=O)(=O)O)ccc12)c1cc(NC(=O)c2ccccc2S(=O)(=O)O)cc(C(=O)Nc2cccc3cc(S(=O)(=O)O)ccc23)c1` [Compound 29, 5-({5-[N-(6-sulfonaphthyl)carbamoyl]-3-[(2-sulfophenyl)carbonylamino]phenyl}carbonylamino)naphthalene-2-sulfonic acid], for which the “Activity (% Control)” value stood at 75.6 % Control.

As to `O=C(O)c1cccc(C(=O)Nc2cc(C(=O)Nc3cccc4cc(S(=O)(=O)O)ccc34)cc(C(=O)Nc3cccc4cc(S(=O)(=O)O)ccc34)c2)c1` [Compound 30, 3-(N-{3,5-bis[N-(6-sulfonaphthyl)carbamoyl]phenyl}carbamoyl)benzoic acid], the “Activity (% Control)” value is 84.1 % Control.

For the compound `O=C(O)c1ccc(C(=O)Nc2cc(C(=O)Nc3cccc4cc(S(=O)(=O)O)ccc34)cc(C(=O)Nc3cccc4cc(S(=O)(=O)O)ccc34)c2)cc1` [Compound 31, 4-(N-{3,5-bis[N-(6-sulfonaphthyl)carbamoyl]phenyl}carbamoyl)benzoic acid], the “Activity (% Control)” value is 159.2 % Control. On to `O=C(O)CCC(=O)Nc1cc(C(=O)Nc2cccc3cc(S(=O)(=O)O)ccc23)cc(C(=O)Nc2cccc3cc(S(=O)(=O)O)ccc23)c1` [Compound 32, 3-(N-{3,5-bis[N-(6-sulfonaphthyl)carbamoyl]phenyl}carbamoyl)propanoic acid], for which the “Activity (% Control)” value turned out to be 109.9 % Control. In the case of `O=C(Nc1cccc2cc(S(=O)(=O)O)ccc12)c1cc(NC(=O)C2CCCCC2)cc(C(=O)Nc2cccc3cc(S(=O)(=O)O)ccc23)c1` [Compound 33, 5-({3-(cyclohexylcarbonylamino)-5-[N-(6-sulfonaphthyl)carbamoyl]phenyl}carbonylamino)naphthalene-2-sulfonic acid] it was 122.5 % Control; in that of `O=C(Nc1cccc2cc(S(=O)(=O)O)ccc12)c1cc(NC(=O)c2ccco2)cc(C(=O)Nc2cccc3cc(S(=O)(=O)O)ccc23)c1` [Compound 34, 5-({3-(2-furylcarbonylamino)-5-[N-(6-sulfonaphthyl)carbamoyl]phenyl}carbonylamino)naphthalene-2-sulfonic acid], 119.5 % Control. In the case of `O=C(Nc1cc(C(=O)Nc2cccc3cc(S(=O)(=O)O)ccc23)cc(C(=O)Nc2cccc3cc(S(=O)(=O)O)ccc23)c1)c1ccncc1` [Compound 35, 5-({3-(4-pyridylcarbonylamino)-5-[N-(6-sulfonaphthyl)carbamoyl]phenyl}carbonylamino)naphthalene-2-sulfonic acid] it was 105.9 % Control; in that of `O=C(Nc1cc(C(=O)Nc2cccc3cc(S(=O)(=O)O)ccc23)cc(C(=O)Nc2cccc3cc(S(=O)(=O)O)ccc23)c1)c1cccnc1` [Compound 36, 5-({3-(3-pyridylcarbonylamino)-5-[N-(6-sulfonaphthyl)carbamoyl]phenyl}carbonylamino)naphthalene-2-sulfonic acid], 123.2 % Control; in that of `O=C(Cc1ccccc1)Nc1cc(C(=O)Nc2cccc3cc(S(=O)(=O)O)ccc23)cc(C(=O)Nc2cccc3cc(S(=O)(=O)O)ccc23)c1` [Compound 37, 5-({3-(2-phenylacetylamino)-5-[N-(6-sulfonaphthyl)carbamoyl]phenyl}carbonylamino)naphthalene-2-sulfonic acid], 113.2 % Control. On to `O=C(COc1ccccc1)Nc1cc(C(=O)Nc2cccc3cc(S(=O)(=O)O)ccc23)cc(C(=O)Nc2cccc3cc(S(=O)(=O)O)ccc23)c1` [Compound 38, 5-({3-(2-phenoxyacetylamino)-5-[N-(6-sulfonaphthyl)carbamoyl]phenyl}carbonylamino)naphthalene-2-sulfonic acid], for which the “Activity (% Control)” value is listed as 84.7 % Control.

For the compound `COc1ccc(CC(=O)Nc2cc(C(=O)Nc3cccc4cc(S(=O)(=O)O)ccc34)cc(C(=O)Nc3cccc4cc(S(=O)(=O)O)ccc34)c2)cc1` [Compound 41, 5-({3-[2-(4-methoxyphenyl)acetylamino]-5-[N-(6-sulfonaphthyl)carbamoyl]phenyl}carbonylamino)naphthalene-2-sulfonic acid], the “Activity (% Control)” value was 136.6 % Control. `Cc1ccc(NC(=O)CCC(=O)Nc2cc(C(=O)Nc3cccc4cc(S(=O)(=O)O)ccc34)cc(C(=O)Nc3cccc4cc(S(=O)(=O)O)ccc34)c2)cc1` [Compound 42, 5-[(3-{3-[N-(4-methylphenyl)carbamoyl]propanoylamino}-5-[N-(6-sulfonaphthyl)carbamoyl]phenyl)carbonylamino]naphthalene-2-sulfonic acid]: the “Activity (% Control)” value was 116.7 % Control. In the case of `Cc1ccc(CC(=O)Nc2cc(C(=O)Nc3cccc4cc(S(=O)(=O)O)ccc34)cc(C(=O)Nc3cccc4cc(S(=O)(=O)O)ccc34)c2)cc1` [Compound 43, 5-({3-[2-(4-methylphenyl)acetylamino]-5-[N-(6-sulfonaphthyl)carbamoyl]phenyl}carbonylamino)naphthalene-2-sulfonic acid] it was 124.2 % Control; in that of `O=C(Cc1cccc(Cl)c1)Nc1cc(C(=O)Nc2cccc3cc(S(=O)(=O)O)ccc23)cc(C(=O)Nc2cccc3cc(S(=O)(=O)O)ccc23)c1` [Compound 44, 5-({3-[2-(3-chlorophenyl)acetylamino]-5-[N-(6-sulfonaphthyl)carbamoyl]phenyl}carbonylamino)naphthalene-2-sulfonic acid], 124.8 % Control. In the case of `O=C(Nc1cccc2cc(S(=O)(=O)O)ccc12)c1cc(NS(=O)(=O)c2ccccc2)cc(C(=O)Nc2cccc3cc(S(=O)(=O)O)ccc23)c1` [Compound 48, 5-({3-[(phenylsulfonyl)amino]-5-[N-(6-sulfonaphthyl)carbamoyl]phenyl}carbonylamino)naphthalene-2-sulfonic acid] it was 114.2 % Control. In the case of `O=C(Nc1cccc2cc(S(=O)(=O)O)ccc12)c1cc(NS(=O)(=O)c2ccc3ccccc3c2)cc(C(=O)Nc2cccc3cc(S(=O)(=O)O)ccc23)c1` [Compound 49, 5-({3-[(2-naphthylsulfonyl)amino]-5-[N-(6-sulfonaphthyl)carbamoyl]phenyl}carbonylamino)naphthalene-2-sulfonic acid], the “Activity (% Control)” value was 109.3 % Control.

For `O=C(Nc1cccc2cc(S(=O)(=O)O)ccc12)c1cc(NS(=O)(=O)c2ccc(Cl)cc2)cc(C(=O)Nc2cccc3cc(S(=O)(=O)O)ccc23)c1` [Compound 50, 5-[(3-{[(4-chlorophenyl)sulfonyl]amino}-5-[N-(6-sulfonaphthyl)carbamoyl]phenyl)carbonylamino]naphthalene-2-sulfonic acid], the “Activity (% Control)” value is recorded as 123.8 % Control.
